This note sets out measurements from US8765669B2, “Glycosylated GLP-1 peptide” (Glytech, Inc., priority 2008, dated 2014).

The data set addresses T1, DPP-IV (dipeptidyl peptidase IV from porcine kidney) (Sus scrofa, UniProt P22411).
T1 construct: dipeptidyl peptidase IV from porcine kidney, product of SIGMA; purchased SIGMA; host or cells: porcine kidney (tissue-derived enzyme)
As to the kind of experiment: Test of resistance to dipeptidyl peptidase IV (DPP-IV). Particulars: half-life (t1/2) in DPP-IV solution at 37° C., GLP-1 of Comparative Example 1 defined as standard (=1). The class given is in vitro ADME. The method, then:
Each solution mixture was adjusted with 100 mM sodium phosphate buffer to 100 μl in total and allowed to react at 37° C. A 10 μaliquot of the reaction solution was mixed with 15 μl of 10% trifluoroacetic acid prepared in advance in another Eppendorf tube.

T1 sequence (P22411 whole entry): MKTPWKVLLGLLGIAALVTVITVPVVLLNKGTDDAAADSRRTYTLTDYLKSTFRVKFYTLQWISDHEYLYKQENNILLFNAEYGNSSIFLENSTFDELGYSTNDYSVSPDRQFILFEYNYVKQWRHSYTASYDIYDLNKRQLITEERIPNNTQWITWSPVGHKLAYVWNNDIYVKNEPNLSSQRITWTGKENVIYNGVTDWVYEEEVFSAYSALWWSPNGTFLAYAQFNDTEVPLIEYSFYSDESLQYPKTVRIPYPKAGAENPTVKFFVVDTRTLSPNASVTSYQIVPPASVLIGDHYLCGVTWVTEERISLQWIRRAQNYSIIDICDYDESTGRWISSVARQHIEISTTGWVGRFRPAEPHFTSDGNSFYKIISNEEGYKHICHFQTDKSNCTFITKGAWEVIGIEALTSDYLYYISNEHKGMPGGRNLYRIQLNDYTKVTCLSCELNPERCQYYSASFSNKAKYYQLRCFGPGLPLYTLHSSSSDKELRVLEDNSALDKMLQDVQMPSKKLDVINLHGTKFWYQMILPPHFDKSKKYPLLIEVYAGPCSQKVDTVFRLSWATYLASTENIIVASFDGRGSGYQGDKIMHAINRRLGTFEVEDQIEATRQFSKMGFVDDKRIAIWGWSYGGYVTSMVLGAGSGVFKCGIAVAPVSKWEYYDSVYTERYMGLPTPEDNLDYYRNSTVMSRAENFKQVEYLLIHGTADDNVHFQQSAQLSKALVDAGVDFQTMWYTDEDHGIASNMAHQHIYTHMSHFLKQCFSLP

As to `CC[C@H](C)[C@H](NC(=O)[C@H](Cc1ccccc1)NC(=O)[C@H](CCC(=O)O)NC(=O)[C@H](CCCCN)NC(=O)[C@H](C)NC(=O)[C@H](C)NC(=O)[C@H](CCC(N)=O)NC(=O)CNC(=O)[C@H](CCC(=O)O)NC(=O)[C@H](CC(C)C)NC(=O)[C@H](Cc1ccc(O)cc1)NC(=O)[C@H](CO)NC(=O)[C@H](CO)NC(=O)[C@@H](NC(=O)[C@H](CC(=O)O)NC(=O)[C@H](CO)NC(=O)[C@@H](NC(=O)[C@H](Cc1ccccc1)NC(=O)[C@@H](NC(=O)CNC(=O)[C@H](CCC(=O)O)NC(=O)[C@H](C)NC(=O)[C@@H](N)Cc1c[nH]cn1)[C@@H](C)O)[C@@H](C)O)C(C)C)C(=O)N[C@@H](CSCC(=O)N[C@@H]1O[C@H](CO)[C@@H](O[C@@H]2O[C@H](CO)[C@@H](O[C@@H]3O[C@H](CO[C@H]4O[C@H](CO)[C@@H](O)[C@H](O)[C@@H]4O[C@@H]4O[C@H](CO)[C@@H](O[C@@H]5O[C@H](CO[C@]6(C(=O)O)C[C@H](O)[C@@H](NC(C)=O)[C@H]([C@H](O)[C@H](O)CO)O6)[C@H](O)[C@H](O)[C@H]5O)[C@H](O)[C@H]4NC(C)=O)[C@@H](O)[C@H](O[C@H]4O[C@H](CO)[C@@H](O)[C@H](O)[C@@H]4O[C@@H]4O[C@H](CO)[C@@H](O[C@@H]5O[C@H](CO[C@]6(C(=O)O)C[C@H](O)[C@@H](NC(C)=O)[C@H]([C@H](O)[C@H](O)CO)O6)[C@H](O)[C@H](O)[C@H]5O)[C@H](O)[C@H]4NC(C)=O)[C@@H]3O)[C@H](O)[C@H]2NC(C)=O)[C@H](O)[C@H]1NC(C)=O)C(=O)N[C@@H](Cc1c[nH]c2ccccc12)C(=O)N[C@@H](CC(C)C)C(=O)N[C@H](C(=O)N[C@@H](CCCCN)C(=O)NCC(=O)N[C@@H](CSCC(=O)N[C@@H]1O[C@H](CO)[C@@H](O[C@@H]2O[C@H](CO)[C@@H](O[C@@H]3O[C@H](CO[C@H]4O[C@H](CO)[C@@H](O)[C@H](O)[C@@H]4O[C@@H]4O[C@H](CO)[C@@H](O[C@@H]5O[C@H](CO[C@]6(C(=O)O)C[C@H](O)[C@@H](NC(C)=O)[C@H]([C@H](O)[C@H](O)CO)O6)[C@H](O)[C@H](O)[C@H]5O)[C@H](O)[C@H]4NC(C)=O)[C@@H](O)[C@H](O[C@H]4O[C@H](CO)[C@@H](O)[C@H](O)[C@@H]4O[C@@H]4O[C@H](CO)[C@@H](O[C@@H]5O[C@H](CO[C@]6(C(=O)O)C[C@H](O)[C@@H](NC(C)=O)[C@H]([C@H](O)[C@H](O)CO)O6)[C@H](O)[C@H](O)[C@H]5O)[C@H](O)[C@H]4NC(C)=O)[C@@H]3O)[C@H](O)[C@H]2NC(C)=O)[C@H](O)[C@H]1NC(C)=O)C(=O)NCC(=O)O)C(C)C` [Example 5, 30,36Cys-disialo oligosaccharide Chain Added GLP-1 Peptide], the “Relative Resistance” value is 7.5.
As for `CC[C@H](C)[C@H](NC(=O)[C@H](Cc1ccccc1)NC(=O)[C@H](CCC(=O)O)NC(=O)[C@H](CCCCN)NC(=O)[C@H](C)NC(=O)[C@H](C)NC(=O)[C@H](CCC(N)=O)NC(=O)CNC(=O)[C@H](CCC(=O)O)NC(=O)[C@H](CC(C)C)NC(=O)[C@H](Cc1ccc(O)cc1)NC(=O)[C@H](CO)NC(=O)[C@H](CO)NC(=O)[C@@H](NC(=O)[C@H](CC(=O)O)NC(=O)[C@H](CO)NC(=O)[C@@H](NC(=O)[C@H](Cc1ccccc1)NC(=O)[C@@H](NC(=O)CNC(=O)[C@H](CCC(=O)O)NC(=O)[C@H](C)NC(=O)[C@@H](N)Cc1c[nH]cn1)[C@@H](C)O)[C@@H](C)O)C(C)C)C(=O)N[C@@H](C)C(=O)N[C@@H](Cc1c[nH]c2ccccc12)C(=O)N[C@@H](CC(C)C)C(=O)N[C@H](C(=O)N[C@@H](CCCCN)C(=O)NCC(=O)N[C@@H](CSCC(=O)N[C@@H]1O[C@H](CO)[C@@H](O)[C@H](O[C@@H]2O[C@H](C(=O)O)[C@@H](O[C@@H]3O[C@H](CO)[C@@H](O)[C@H](O[C@@H]4O[C@H](C(=O)O)[C@@H](O[C@@H]5O[C@H](CO)[C@@H](O)[C@H](O[C@@H]6O[C@H](C(=O)O)[C@@H](O[C@@H]7O[C@H](CO)[C@@H](O)[C@H](O[C@@H]8O[C@H](C(=O)O)[C@@H](O[C@@H]9O[C@H](CO)[C@@H](O)[C@H](O[C@@H]%10O[C@H](C(=O)O)[C@@H](O[C@@H]%11O[C@H](CO)[C@@H](O)[C@H](O[C@@H]%12O[C@H](C(=O)O)[C@@H](O[C@@H]%13O[C@H](CO)[C@@H](O)[C@H](O[C@@H]%14O[C@H](C(=O)O)[C@@H](O[C@@H]%15O[C@H](CO)[C@@H](O)[C@H](O[C@@H]%16O[C@H](C(=O)O)[C@@H](O)[C@H](O)[C@H]%16O)[C@H]%15NC(C)=O)[C@H](O)[C@H]%14O)[C@H]%13NC(C)=O)[C@H](O)[C@H]%12O)[C@H]%11NC(C)=O)[C@H](O)[C@H]%10O)[C@H]9NC(C)=O)[C@H](O)[C@H]8O)[C@H]7NC(C)=O)[C@H](O)[C@H]6O)[C@H]5NC(C)=O)[C@H](O)[C@H]4O)[C@H]3NC(C)=O)[C@H](O)[C@H]2O)[C@H]1NC(C)=O)C(=O)NCC(=O)O)C(C)C` [Example 11, 36Cys-hyaluronic acid hexadecasaccharide (HA-16) Added GLP-1 Peptide], the figure is 3; as for `CC[C@H](C)[C@H](NC(=O)[C@H](Cc1ccccc1)NC(=O)[C@H](CCC(=O)O)NC(=O)[C@H](CCCCN)NC(=O)[C@H](C)NC(=O)[C@H](C)NC(=O)[C@H](CCC(N)=O)NC(=O)CNC(=O)[C@H](CCC(=O)O)NC(=O)[C@H](CC(C)C)NC(=O)[C@H](Cc1ccc(O)cc1)NC(=O)[C@H](CO)NC(=O)[C@H](CO)NC(=O)[C@@H](NC(=O)[C@H](CC(=O)O)NC(=O)[C@H](CO)NC(=O)[C@@H](NC(=O)[C@H](Cc1ccccc1)NC(=O)[C@@H](NC(=O)CNC(=O)[C@H](CCC(=O)O)NC(=O)[C@H](C)NC(=O)[C@@H](N)Cc1c[nH]cn1)[C@@H](C)O)[C@@H](C)O)C(C)C)C(=O)N[C@@H](C)C(=O)N[C@@H](Cc1c[nH]c2ccccc12)C(=O)N[C@@H](CC(C)C)C(=O)N[C@H](C(=O)N[C@@H](CCCCN)C(=O)NCC(=O)N[C@@H](CSCC(=O)N[C@@H]1O[C@H](CO)[C@@H](O)[C@H](O[C@@H]2O[C@H](C(=O)O)[C@@H](O[C@@H]3O[C@H](CO)[C@@H](O)[C@H](O[C@@H]4O[C@H](C(=O)O)[C@@H](O)[C@H](O)[C@H]4O)[C@H]3NC(C)=O)[C@H](O)[C@H]2O)[C@H]1NC(C)=O)C(=O)NCC(=O)O)C(C)C` [Example 8, 36Cys-hyaluronic acid tetrasaccharide (HA-4) Added GLP-1 Peptide], 2.2.
As to `CC[C@H](C)[C@H](NC(=O)[C@H](Cc1ccccc1)NC(=O)[C@H](CCC(=O)O)NC(=O)[C@H](CCCCN)NC(=O)[C@H](C)NC(=O)[C@H](C)NC(=O)[C@H](CCC(N)=O)NC(=O)CNC(=O)[C@H](CCC(=O)O)NC(=O)[C@H](CC(C)C)NC(=O)[C@H](Cc1ccc(O)cc1)NC(=O)[C@H](CO)NC(=O)[C@H](CO)NC(=O)[C@@H](NC(=O)[C@H](CC(=O)O)NC(=O)[C@H](CO)NC(=O)[C@@H](NC(=O)[C@H](Cc1ccccc1)NC(=O)[C@@H](NC(=O)CNC(=O)[C@H](CCC(=O)O)NC(=O)[C@H](C)NC(=O)[C@@H](N)Cc1c[nH]cn1)[C@@H](C)O)[C@@H](C)O)C(C)C)C(=O)N[C@@H](CSCC(=O)N[C@@H]1O[C@H](CO)[C@@H](O)[C@H](O[C@@H]2O[C@H](C(=O)O)[C@@H](O[C@@H]3O[C@H](CO)[C@@H](O)[C@H](O[C@@H]4O[C@H](C(=O)O)[C@@H](O[C@@H]5O[C@H](CO)[C@@H](O)[C@H](O[C@@H]6O[C@H](C(=O)O)[C@@H](O[C@@H]7O[C@H](CO)[C@@H](O)[C@H](O[C@@H]8O[C@H](C(=O)O)[C@@H](O[C@@H]9O[C@H](CO)[C@@H](O)[C@H](O[C@@H]%10O[C@H](C(=O)O)[C@@H](O[C@@H]%11O[C@H](CO)[C@@H](O)[C@H](O[C@@H]%12O[C@H](C(=O)O)[C@@H](O[C@@H]%13O[C@H](CO)[C@@H](O)[C@H](O[C@@H]%14O[C@H](C(=O)O)[C@@H](O[C@@H]%15O[C@H](CO)[C@@H](O)[C@H](O[C@@H]%16O[C@H](C(=O)O)[C@@H](O)[C@H](O)[C@H]%16O)[C@H]%15NC(C)=O)[C@H](O)[C@H]%14O)[C@H]%13NC(C)=O)[C@H](O)[C@H]%12O)[C@H]%11NC(C)=O)[C@H](O)[C@H]%10O)[C@H]9NC(C)=O)[C@H](O)[C@H]8O)[C@H]7NC(C)=O)[C@H](O)[C@H]6O)[C@H]5NC(C)=O)[C@H](O)[C@H]4O)[C@H]3NC(C)=O)[C@H](O)[C@H]2O)[C@H]1NC(C)=O)C(=O)N[C@@H](Cc1c[nH]c2ccccc12)C(=O)N[C@@H](CC(C)C)C(=O)N[C@H](C(=O)N[C@@H](CCCCN)C(=O)NCC(=O)N[C@@H](CCCNC(=N)N)C(=O)NCC(=O)O)C(C)C` [Example 10, 30Cys-hyaluronic acid hexadecasaccharide (HA-16) Added GLP-1 Peptide], the “Relative Resistance” value is reported as 3.9.
To `CC[C@H](C)[C@H](NC(=O)[C@H](Cc1ccccc1)NC(=O)[C@H](CCC(=O)O)NC(=O)[C@H](CCCCN)NC(=O)[C@H](C)NC(=O)[C@H](C)NC(=O)[C@H](CCC(N)=O)NC(=O)CNC(=O)[C@H](CCC(=O)O)NC(=O)[C@H](CC(C)C)NC(=O)[C@H](Cc1ccc(O)cc1)NC(=O)[C@H](CO)NC(=O)[C@H](CO)NC(=O)[C@@H](NC(=O)[C@H](CC(=O)O)NC(=O)[C@H](CO)NC(=O)[C@@H](NC(=O)[C@H](Cc1ccccc1)NC(=O)[C@@H](NC(=O)CNC(=O)[C@H](CCC(=O)O)NC(=O)[C@H](C)NC(=O)[C@@H](N)Cc1c[nH]cn1)[C@@H](C)O)[C@@H](C)O)C(C)C)C(=O)N[C@@H](CSCC(=O)N[C@@H]1O[C@H](CO)[C@@H](O)[C@H](O[C@@H]2O[C@H](C(=O)O)[C@@H](O[C@@H]3O[C@H](CO)[C@@H](O)[C@H](O[C@@H]4O[C@H](C(=O)O)[C@@H](O[C@@H]5O[C@H](CO)[C@@H](O)[C@H](O[C@@H]6O[C@H](C(=O)O)[C@@H](O[C@@H]7O[C@H](CO)[C@@H](O)[C@H](O[C@@H]8O[C@H](C(=O)O)[C@@H](O)[C@H](O)[C@H]8O)[C@H]7NC(C)=O)[C@H](O)[C@H]6O)[C@H]5NC(C)=O)[C@H](O)[C@H]4O)[C@H]3NC(C)=O)[C@H](O)[C@H]2O)[C@H]1NC(C)=O)C(=O)N[C@@H](Cc1c[nH]c2ccccc12)C(=O)N[C@@H](CC(C)C)C(=O)N[C@H](C(=O)N[C@@H](CCCCN)C(=O)NCC(=O)N[C@@H](CCCNC(=N)N)C(=O)NCC(=O)O)C(C)C` [Example 7, 30Cys-hyaluronic acid octasaccharide (HA-8) Added GLP-1 Peptide] belongs 3.4.
